Laboratory results from ChEMBL document CHEMBL1136063, “Oxal hydroxamic acid derivatives with inhibitory activity against matrix metalloproteinases” (Bioorg Med Chem Lett, 2002).
pKi: −log10 of the molar value.

How the values were obtained:
[1] = target: T1, Matrix metalloproteinase-9 (Homo sapiens, UniProt P14780); experiment: Inhibitory activity against human gelatinase B (matrix metalloprotease-9)
Neutrophil collagenase [2] = target: T2, Neutrophil collagenase (Homo sapiens, UniProt P22894); experiment: Percent remaining enzyme activity (RA) in neutrophil collagenase (matrix metalloprotease-8); parameters: concentration or dose not given beside the values
Target sequence in this assay (P22894 101-467 limits assumed): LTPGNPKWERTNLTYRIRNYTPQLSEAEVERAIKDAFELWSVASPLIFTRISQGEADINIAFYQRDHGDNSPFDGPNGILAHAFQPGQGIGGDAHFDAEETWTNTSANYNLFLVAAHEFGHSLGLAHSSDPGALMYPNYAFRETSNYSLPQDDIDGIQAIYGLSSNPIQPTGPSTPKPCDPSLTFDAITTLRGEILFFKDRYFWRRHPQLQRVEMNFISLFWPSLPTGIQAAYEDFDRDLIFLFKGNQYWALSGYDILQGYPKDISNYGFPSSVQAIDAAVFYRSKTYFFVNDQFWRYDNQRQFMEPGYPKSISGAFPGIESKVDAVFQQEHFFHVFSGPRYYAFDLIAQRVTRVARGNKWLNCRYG

[3] = target: T3, Matrix metalloproteinase-14 (Homo sapiens, UniProt P50281); experiment: Percent remaining enzyme activity (RA) in catalytic domains of the membrane type MT1-MMP (matrix metalloprotease-14); parameters: concentration or dose not given beside the values
[4] = target: T1, Matrix metalloproteinase-9; experiment: Percent remaining enzyme activity (RA) in human gelatinase B (matrix metalloprotease-9); parameters: concentration or dose not given beside the values
[5] = target: T3, Matrix metalloproteinase-14; experiment: (§1) Inhibition of membrane type MT1-MMP (Matrix metalloprotease-14)catalytic domain
Neutrophil collagenase [6] = target: T2, Neutrophil collagenase; experiment: Tested for its inhibitory activity against neutrophil collagenase (Matrix metalloprotease-8)
Target sequence in this assay (P22894 whole entry, the tested form may be a part): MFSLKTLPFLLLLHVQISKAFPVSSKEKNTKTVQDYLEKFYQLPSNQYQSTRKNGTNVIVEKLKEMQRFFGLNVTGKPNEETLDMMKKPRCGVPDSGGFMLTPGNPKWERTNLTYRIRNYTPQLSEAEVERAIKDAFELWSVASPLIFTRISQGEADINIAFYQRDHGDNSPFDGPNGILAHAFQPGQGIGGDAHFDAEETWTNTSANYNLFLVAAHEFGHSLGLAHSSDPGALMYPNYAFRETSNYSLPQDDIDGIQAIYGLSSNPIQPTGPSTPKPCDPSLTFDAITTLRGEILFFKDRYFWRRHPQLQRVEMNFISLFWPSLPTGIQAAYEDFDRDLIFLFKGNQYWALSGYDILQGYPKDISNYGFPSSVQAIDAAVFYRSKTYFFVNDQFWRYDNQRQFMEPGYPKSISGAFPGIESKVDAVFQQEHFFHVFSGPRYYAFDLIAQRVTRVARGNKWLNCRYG

[7] = target: T3, Matrix metalloproteinase-14; experiment: as §1; details: concentration not given here

T1 sequence (P14780 whole entry): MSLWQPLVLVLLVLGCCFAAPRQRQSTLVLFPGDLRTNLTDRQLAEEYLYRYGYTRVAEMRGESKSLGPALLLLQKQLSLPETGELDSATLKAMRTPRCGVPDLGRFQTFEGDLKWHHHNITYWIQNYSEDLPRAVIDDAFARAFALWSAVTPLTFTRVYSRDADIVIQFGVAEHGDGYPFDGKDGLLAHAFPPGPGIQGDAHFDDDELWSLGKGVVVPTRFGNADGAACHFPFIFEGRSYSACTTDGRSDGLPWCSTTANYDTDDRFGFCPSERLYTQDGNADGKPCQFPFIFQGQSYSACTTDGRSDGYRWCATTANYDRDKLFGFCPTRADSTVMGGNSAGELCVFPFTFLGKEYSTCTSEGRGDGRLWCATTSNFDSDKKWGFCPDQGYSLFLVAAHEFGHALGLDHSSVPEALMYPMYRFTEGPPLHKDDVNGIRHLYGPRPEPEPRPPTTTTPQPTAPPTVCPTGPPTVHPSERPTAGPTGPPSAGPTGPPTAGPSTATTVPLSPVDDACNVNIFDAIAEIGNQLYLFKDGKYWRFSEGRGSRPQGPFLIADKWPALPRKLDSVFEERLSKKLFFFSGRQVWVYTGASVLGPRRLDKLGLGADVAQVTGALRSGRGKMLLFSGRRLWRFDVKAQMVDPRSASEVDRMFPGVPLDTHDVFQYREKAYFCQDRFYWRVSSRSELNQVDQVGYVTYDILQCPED

Row | Compound | pKi [1] | residual activity (Neutrophil collagenase [2]) [%] | residual activity [3] [%] | residual activity [4] [%] | pKi [5] | pKi (Neutrophil collagenase [6]) | inhibition [7] [%]
1 | C[C@@H](NC(=O)C(=O)NO)c1ccc2ccccc2c1 | 5.48 | 43 | 54 | 7 |  |  | 
2 | CCCC[C@H](NC(=O)C(=O)NO)C(=O)N[C@H](Cc1ccc(OCc2ccccc2)cc1)C(=O)N(C)C | 5.12 | 34 | 29 | 13 | 4.48 |  | 
3 | O=C(NO)C(=O)NCCc1c[nH]c2ccc(Cl)cc12 | 6.46 | 15 | 35 | 2 | 4.46 | 4.85 | 
4 | C[C@H](NC(=O)C(=O)NO)C(=O)N[C@@H](C)c1ccccc1 | 5.05 | 9 |  | 35 | 3.74 | 5.22 | 80
5 | CC(C)C[C@H](NC(=O)C(=O)NO)C(=O)N[C@H](C)c1ccccc1 |  | 74 | 79 | 60 |  |  | 
6 | CC(C)C[C@H](NC(=O)C(=O)NO)C(=O)N[C@@H](C)c1ccccc1 | 5.26 | 3 | 54 | 9 | 4.70 | 5.77 | 
7 | CN(C)C(=O)[C@H](Cc1c[nH]c2ccccc12)NC(=O)C(=O)NO | 5.36 | 44 | 33 | 25 | 4.82 | 4.55 | 
8 | O=C(NO)C(=O)NCCc1c[nH]c2ccccc12 | 6.10 | 18 | 48 | 3 |  |  | 
9 | CCCCC(CC)COCCCNC(=O)C(=O)NO (centres undefined) | 6.60 | 12 | 14 | 3 | 5.05 | 5.15 | 
10 | CNC(=O)[C@H](Cc1ccc(OCc2ccccc2)cc1)NC(=O)C(=O)NO | 5.70 | 4 | 53 | 1 |  | 5.82 | 
11 | C[C@H](NC(=O)[C@H](Cc1ccc2ccccc2c1)NC(=O)C(=O)NO)c1ccccc1 | 6.30 | 4 | 37 | 5 |  | 6.00 | 
12 | C[C@H](NC(=O)[C@H](Cc1ccc(O)cc1)NC(=O)C(=O)NO)c1ccccc1 | 6.22 | 0 | 54 | 0 |  | 6.60 | 
13 | C[C@H](NC(=O)[C@H](CC(=O)OCc1ccccc1)NC(=O)C(=O)NO)c1ccccc1 | 6.22 | 1 | 53 | 3 |  |  | 
14 | C[C@H](NC(=O)[C@H](Cc1c[nH]c2ccccc12)NC(=O)C(=O)NO)c1ccccc1 | 7.00 | 2 | 36 | 1 |  | 6.40 | 
15 | C[C@H](NC(=O)[C@H](Cc1ccc(OCc2ccccc2)cc1)NC(=O)C(=O)NO)c1ccccc1 |  | 5 | 69 | 11 |  |  | 
16 | CC(C)C[C@H](NC(=O)C(=O)NO)C(=O)N(C)C |  | 72 | 61 | 55 |  |  | 
17 | CC(OCc1ccccc1)[C@H](NC(=O)C(=O)NO)C(=O)N(C)C (some centres undefined) | 5.40 | 67 | 66 | 18 |  | 4.12 | 

Row | Compound | pKi [1] | residual activity (Neutrophil collagenase [2]) [%] | residual activity [3] [%] | residual activity [4] [%] | pKi [5] | pKi (Neutrophil collagenase [6]) | inhibition [7] [%]
18 | C[C@H](NC(=O)[C@H](COCc1ccccc1)NC(=O)C(=O)NO)c1ccccc1 | 5.48 | 1 | 19 | 6 | 4.96 |  | 
19 | C[C@H](NC(=O)C(=O)NO)c1ccc2ccccc2c1 |  | 89 | 80 | 67 |  |  | 
20 | CN(C)C(=O)[C@H](Cc1ccccc1)NC(=O)C(=O)NO | 4.85 | 48 | 15 | 25 | 5.02 | 4.42 | 
21 | C[C@H](NC(=O)[C@H](Cc1ccccc1)NC(=O)C(=O)NO)c1ccccc1 | 6.05 | 1 | 36 | 1 | 4.85 | 6.37 | 
22 | CN(C)C(=O)[C@H](COCc1ccccc1)NC(=O)C(=O)NO |  | 56 | 41 | 40 |  |  | 
23 | C[C@H](NC(=O)[C@H](Cc1ccc(NC(=O)OCc2ccccc2)cc1)NC(=O)C(=O)NO)c1ccccc1 |  | 32 | 76 | 22 |  |  | 
24 | C[C@H](NC(=O)[C@H](Cc1cccc2ccccc12)NC(=O)C(=O)NO)c1ccccc1 | 6.82 | 0 |  | 1 | 4.54 | 6.52 | 
25 | CN(C)C(=O)[C@@H](Cc1ccc(OCc2ccccc2)cc1)NC(=O)[C@H](Cc1ccccc1)NC(=O)C(=O)NO | 6.00 | 10 | 5 | 3 | 5.85 |  | 
26 | CC(OCc1ccccc1)[C@H](NC(=O)C(=O)NO)C(=O)N[C@@H](C)c1ccccc1 (some centres undefined) | 5.49 | 8 | 71 | 11 |  | 5.52 | 
27 | C[C@H](NC(=O)[C@H](Cc1ccc(NC(=O)Nc2ccccc2)cc1)NC(=O)C(=O)NO)c1ccccc1 | 6.10 | 6 | 74 | 5 |  | 6.00 | 
28 | O=C(NO)C(=O)NCCC(NC(=O)C(=O)NO)C1CCCCC1 (centres undefined) |  | 39 | 48 | 5 |  |  | 
29 | CN(C)C(=O)[C@H](Cc1cccc2ccccc12)NC(=O)C(=O)NO | 5.09 | 47 | 26 | 15 |  |  | 
30 | O=C(NO)C(=O)NCCN(C(=O)C(=O)NO)c1cccc2ccccc12 | 7.00 | 14 | 20 | 0 |  |  | 
31 | CN(C)C(=O)[C@H](Cc1ccc2ccccc2c1)NC(=O)C(=O)NO | 4.36 | 15 | 30 | 19 |  | 5.22 | 
32 | CN(C)C(=O)[C@H](Cc1ccc(COc2ccccc2)cc1)NC(=O)C(=O)NO | 5.52 | 43 | 37 | 7 |  | 4.66 | 
33 | O=C(NO)C(=O)N[C@@H](Cc1ccc(COc2ccccc2)cc1)C(=O)NO |  | 5 | 23 | 2 |  |  | 
34 | CC(NC(=O)[C@H](Cc1ccccc1)NC(=O)C(=O)NO)c1cccc2ccccc12 (some centres undefined) |  | 5 | 42 | 2 |  |  | 
